Each sequence was assayed on Myo5 SH3 domain (assay: SPOT analysis of cellulose-bound peptides (WISE), Myo5 SH3 domain (Dataset S4)). Settings: SPOT analysis of cellulose-bound 14-mer yeast proteome peptides, Myo5 SH3 domain; normalized value; mean where the peptide was synthesized more than once.
Format: binding, Saccharomyces cerevisiae

| Sequence | The normalized value in BLU units [BLU] |
| --- | --- |
| LIWHKNKPTKPDNK | 300.3 |
| LLAEHNGPKLPHIP | 198.5 |
| LLAKLPLPRDPRVA | 343.8 |
| LLQSLRLPTTPTER | 124.6 |
| LLYLMTYPQQPMVK | 161.7 |
| LPAVFSAPIRPDIV | 201.8 |
| LPKLKSNPSVPHLH | 193.1 |
| LPQQHLSPLIPIAI | 45.3 |
| LPTALLSPLRPSLC | 115.0 |
| LQYHKKNPYSPLFS | 317.8 |
| LSGTRLVPNCPLLW | 431.8 |
| LTSVKIVPQRPISD | 89.0 |
| LVPSKAIPPLPQLD | 558.2 |
| LWRPRIVPILPYIT | 1051.3 |
| LYREREEPPLPKRI | 112.3 |
| MAEFRRVPLPPMAE | 442.6 |
| MASFLPVPEKPNLI | 161.0 |
| MEEPFIWPEEPRPD | 79.7 |
| MFNLLQKPEQPHQN | 204.0 |

| Sequence | The normalized value in BLU units [BLU] |
| --- | --- |
| MLKALFTPLIPVSF | 257.0 |
| MLNEHGVPVVPSRE | 199.3 |
| MPNLKRLPIPPLQD | 306.9 |
| MSWCKERPECPLCR | 268.5 |
| MTQPKKNPMEPKTD | 147.2 |
| MTVPRNRPMAPFGT | 595.6 |
| NALKLIHPFMPFIS | 170.3 |
| NAPERAVPILPPRN | 740.9 |
| NAQLRKTPLEPGLE | 175.9 |
| NEAPMLSPQRPYST | 111.3 |
| NEHGMNAPSVPEFI | 344.1 |
| NETKLKFPTLPEVP | 254.7 |
| NFPSLIDPHVPTYG | 97.4 |
| NKIPKHLPADPIFS | 277.9 |
| NLAPFTQPDFPFQT | 81.4 |
| NLHGYGHPNPPNEK | 216.6 |
| NLYQRTTPAGPDPS | 114.4 |
| NPFPFPIPEIPSTQ | 86.5 |

Same assay, conditions: SPOT analysis of cellulose-bound peptides probed with Myo5 SH3 domain; normalized value

| Sequence | The normalized value in BLU units (SPOT analysis, Myo5 SH3) [BLU] |
| --- | --- |
| LLISHLFPTNPEFS | 413.9 |
| LLKGYIPPYKPIVK | 168.7 |
| LLLPLLLPPLPSVK | 6465.7 |
| LPAPPPPPRRGPA | 43350 |
| LPEELMRPKVPELL | 145.4 |
| LPFMYLLPRFPSHI | 454.8 |
| LPTGYYEPMKPSSL | 164.9 |
| LWILYMSPDVPSAS | 252.6 |
| LWKPLVYPTCPSEH | 185.3 |
| MAKSFADPRVPQPM | 172.2 |
| MANILYYPQKPLGT | 152.5 |
| MASGLLPPIQPGFD | 223.0 |
| MFELLCHPKVPVGM | 267.7 |
| MFTYFQEPPFPDLL | 239.3 |
| MLFSWPYPEAPIEG | 126.4 |
| NAIAMALPNEPYPA | 96.8 |
| NAIEMALPNDPYPA | 87.2 |
| NALGLDPPPSPEDP | 240.8 |
| NASAMPAPYMPYYY | 225.5 |
| NASLLRDPSAPYAH | 133.8 |
| NEDTFLPPPPPPPS | 20439.9 |
| NEFLHFDPHIPQPA | 156.4 |
| NEGDLYPPEQPGVD | 80.1 |
| NEIELLRPRSPVQK | 125.6 |
| NEKLHETPHLPSPV | 109.3 |
| NFLKHYLPSSPGDI | 172.3 |
| NLLSLENPVVPSHY | 75.6 |

Same assay, conditions: SPOT analysis of membrane-bound peptides, Myo5 SH3 domain; normalized value (see methods)

| Sequence | The normalized value in BLU units [BLU] |
| --- | --- |
| LIWHKSKPVKPTNK | 353.6 |
| LKDPKSFPPPPLKP | 252.9 |
| LKKQKAIPSSPCGM | 306.9 |
| LLVTKERPRFPEDD | 33.7 |
| LNATKISPSAPSKD | 114.4 |
| LNGLKSSPADPHLS | 152.9 |
| LNKTKLLPQSPILN | 117.8 |
| LNLSKDAPVPPAPE | 161.0 |
| LNRKKVTPQLPKVT | 499.8 |
| LPEKKNSPTTPSVF | 102.5 |
| LPEPRFYPLSPKNN | 289.3 |
| LSKVRGRPMYPRPA | 752.4 |
| LSYLKDLPFVPFLF | 213.0 |
| LTIFKRPPKQPGHQ | 702.9 |
| LTLTKWDPSKPISL | 231.0 |
| LTSFKGRPKPPKTL | 327.7 |
| LVGLKYEPLFPYFA | 124.8 |

| Sequence | The normalized value in BLU units [BLU] |
| --- | --- |
| LVGMRSFPLYPSGL | 385.7 |
| MDGIKELPEFPIKK | 138.4 |
| MDMDRNVPLAPNLN | 91.4 |
| MKPQKIAPKFPGTV | 415.8 |
| MLNSKHYPYIPVAN | 170.8 |
| MQSKKEDPNRPKNL | 153.6 |
| MRRCKDAPIEPPKY | 155.1 |
| NAPPRIFPKAPIYG | 168.1 |
| NDDKKTEPDKPAFS | 140.5 |
| NDLVKRFPEQPPLR | 21447.2 |
| NEFAKFAPDLPVLK | 135.1 |
| NELVKRFPGHPPLR | 300.5 |
| NESEKSSPWSPYKV | 221.5 |
| NGKDKSRPPRPPPK | 2621.2 |
| NGTWKYNPTVPNEL | 172.6 |
| NITEKSPPKSPKHK | 292.3 |
| NNLKKRPPTAPQRK | 418.9 |

Same assay, conditions: SPOT analysis of membrane-synthesized peptides probed with Myo5 SH3 domain; normalized value

| Sequence | The normalized value in BLU units (SPOT analysis, Myo5 SH3) [BLU] |
| --- | --- |
| LIDFKDYPDVPKVP | 153.6 |
| LITDKEYPVRPAYT | 136.3 |
| LIWHKNKPTEPDNK | 155.4 |
| LKDNRLLPSWPKRG | 518.0 |
| LKHTKNKPKNPDTA | 406.0 |
| LLEERNNPDIPVDK | 311.9 |
| LLPTKLIPSIPGGK | 172.0 |
| LMSLKRFPQLPSNT | 347.7 |
| LNFKRLLPRDPSEK | 553.7 |
| LNFPKNIPTIPFYV | 255.7 |
| LNPNRRAPRRPLST | 8004.0 |
| LNQSKGQPFQPSPT | 254.7 |
| LNRQKNYPDAPAIF | 86.4 |
| LNTMKKRPAPPSLP | 22346.5 |
| LPFPRKNPKLPENT | 147.2 |
| LPLPKLRPPRPTFA | 77883.2 |
| LPLSRVQPVQPSQT | 122.5 |
| LQESKTVPQSPKKP | 159.2 |
| LQNAKNDPLPPVIE | 58.8 |
| LQQRRYYPIFPGSI | 278.7 |
| LRISKPDPECPSKL | 246.3 |
| LSFDRPPPLTPEKN | 174.4 |

| Sequence | The normalized value in BLU units (SPOT analysis, Myo5 SH3) [BLU] |
| --- | --- |
| LSKLRLSPENPSNT | 157.2 |
| LSPAKARPSFPHND | 212.8 |
| LSRSKPLPLTPNSK | 323.9 |
| LTKIRRRPQQPLTD | 393.3 |
| MAFIKILPNNPWPF | 59.9 |
| MDKFRIPPKSPNIE | 222.0 |
| MGLNKDVPHCPESL | 99.4 |
| MKAYRANPPLPIDS | 123.1 |
| MLFMKGSPSEPKCG | 250.7 |
| MYDRKVIPRMPWHD | 357.4 |
| MYGSKFIPFGPKCQ | 289.9 |
| NDMAKPLPTPPTAE | 113.6 |
| NDNEKKKPSSPTAA | 98.5 |
| NELIKQGPKRPTSA | 175.5 |
| NFPQRMMPPPPGLV | 617.7 |
| NGMPRRIPDYPDAF | 223.3 |
| NIFQKQLPKMPKEY | 276.2 |
| NIPTKSPPKSPKHK | 12462.9 |
| NKPKRKRPAPPKKK | 872.0 |
| NLKTKSHPEVPRLD | 362.8 |
| NLSLRYAPNLPPVI | 778.6 |
| NNSTRPIPAIPMDL | 247.2 |

From article PMC314469, “Protein Interaction Networks by Proteome Peptide Scanning” (PLoS Biology, 2004)
